# Experimental data taken from patent US20120329758A1, “Combined Treatment Utilizing VB-201” (priority 2010, published 2012).
# Experiments:
# C-reactive protein (CRP) = conditions: healthy humans; previously shown; cited from earlier work
# [1] = Plasma cholesterol assay in rabbits fed a high-cholesterol diet; assay type: in vivo, male New Zealand White rabbits; conditions: for Average cholesterol level / Average cholesterol level (% of control): plasma, atorvastatin 2.5 mg/kg, VB-201 4 mg/kg; for effect on cholesterol levels (in words): rabbits on high-cholesterol diet, atorvastatin 2.5 mg/kg (alone or with VB-201), VB-201 4 mg/kg per se
# Method: Plasma cholesterol levels were determined in the Bert W. Strassburger Lipid Center (Sheba Medical Center, Israel) using a Cobas Mira analyzer (Roche) and cholesterol reagent (Roche/Hitach).
# (§1) Atherosclerosis was induced in male New Zealand White rabbits (hsdIF:NZ, Harlan) by supplying the rabbits with a high-cholesterol diet (0.5% w/w cholesterol) for 14 weeks. The rabbits were assigned to four treatment groups (7 or 8 animals per group): a) atorvastatin treatment; b) VB-201 treatment; c) combined atorvastatin+VB-201 treatment; and d) PBS with 0.5% ethanol (control group).
# Atorvastatin was administered by supplementing the diet with 50 mg/kg atorvastatin, which corresponds to a daily dose of approximately 2.5 mg/kg, based on a daily food consumption of approximately 125 grams per rabbit and an average weight of 2.5 kg.
# VB-201 was administered daily (5 days per week) by oral gavage of the stock solution (2.7 mg/ml) at volume of 1.5 ml per kg body weight, corresponding to a dose of approximately 4 mg/kg.
# (§2) At the end of 14 weeks, the rabbits were sacrificed, and the effects of the treatments were evaluated by measurement of aortic lesion areas and plasma cholesterol levels, and routine blood chemistry assessment (as described hereinabove). Plasma cholesterol levels were also determined after 5 weeks of the high-cholesterol diet.
# [2] = system: DSS-induced colitis in mice; assay: Dextran sulfate sodium (DSS)-induced colitis model; assay type: in vivo; conditions: for body weight loss: DSS colitis mice, VB-201 oral daily; for body weight loss / disease activity index (DAI), chronic phase / disease activity index (DAI), acute phase: glatiramer acetate 2 mg per mouse s.c. daily; for disease activity index (DAI), chronic phase: after about day 20; for disease activity index (DAI), chronic phase / disease activity index (DAI), acute phase: VB-201 0.04, 0.4 or 4 mg/kg oral daily, FIG. 3; for disease activity index (DAI), acute phase: until about day 20
# Method: Colitis was induced in mice with dextran sulfate sodium (DSS), to serve as a model of inflammatory disorders. A solution of 2% DSS was administered in the drinking water of the mice on days 0-4, 19-23 and 32-36 of the experiment.
# VB-201 was administered by oral gavage at daily doses of 0.04, 0.4 or 4 mg/kg, beginning 5 days prior to disease induction (i.e., first day of DSS administration). In an alternative treatment, 2 mg per mouse of glatiramer acetate was administered subcutaneously, daily from day 0. Each treatment group included 20 mice. As a negative control, 15 mice were administered vehicle (PBS with 0.5% ethanol) by gavage beginning 5 days prior to disease induction. […], 8 mice were administered vehicle (PBS with 0.5% ethanol) by gavage beginning 5 days prior to disease induction, without treatment with DSS, and 5 mice received no treatment at all. Mice were sacrificed on day 39, and their colon length and weight was determined.
# Mice were scored according to a disease activity index (DAI), based on the average score for weight loss, stool consistency and bleeding, as follows: […]
# [3] = system: atherosclerosis (aortic lesion area) in rabbits fed a high-cholesterol diet; assay: Measurement of aortic lesion area in rabbits fed a high-cholesterol diet; assay type: in vivo, male New Zealand White rabbits; conditions: high-cholesterol diet 14 weeks, atorvastatin approx. 2.5 mg/kg daily in diet, VB-201 approx. 4 mg/kg oral gavage 5 days per week, FIG. 1
# Method: Aortas were collected upon sacrifice. Lesion area was determined by scanning the intensity of Sudan IV stain adhering to the lesioned tissue, using Image-Pro Plus software (Media Cybernetics). Lesion areas were calculated in three different sections of the aorta (aortic arch, thoracic aorta and abdominal aorta). The total aortic lesion area (sum of lesion areas in all 3 sections) was calculated as a percentage of the sum of all 3 section areas.
# as §1, with “group). […]” for “group).”
# as §2
# [4] = Blood chemistry assay (SGPT, alkaline phosphatase) in rabbits fed a high-cholesterol diet; assay type: in vivo, male New Zealand White rabbits; conditions: 14 weeks of high-cholesterol diet, atorvastatin 2.5 mg/kg, VB-201 4 mg/kg
# Method: Blood chemistry was assayed by the Pathological Chemistry Institute Laboratory (Sheba Medical Center, Israel) using an AU2700® spectrophotometer (Olympus) and the appropriate Olympus reagents. The parameters evaluated were urea, creatinine, glucose, potassium, sodium, chloride, total calcium, phopshorus, uric acid, bilirubin, SGOT, SGPT, LDH, total CPK, CPK-MB, CK-MB %, total protein, albumin, globulin, alkaline phosphatase and osmolality levels. Atherosclerosis was induced in male New Zealand White rabbits (hsdIF:NZ, Harlan) by supplying the rabbits with a high-cholesterol diet (0.5% w/w cholesterol) for 14 weeks. The rabbits were assigned to four treatment groups (7 or 8 animals per group): a) atorvastatin treatment; b) VB-201 treatment; c) combined atorvastatin+VB-201 treatment; and d) PBS with 0.5% ethanol (control group). […] VB-201 was administered daily (5 days per week) by oral gavage of the stock solution (2.7 mg/ml) at volume of 1.5 ml per kg body weight, corresponding to a dose of approximately 4 mg/kg. At the end of 14 weeks, the rabbits were sacrificed, and the effects of the treatments were evaluated by measurement of aortic lesion areas and plasma cholesterol levels, and routine blood chemistry assessment (as described hereinabove).
# [5] = 5 weeks of high-cholesterol diet
# [6] = 14 weeks of high-cholesterol diet
# [7] = day 39, VB-201 at all tested doses (0.04, 0.4, 4 mg/kg), glatiramer acetate 2 mg per mouse, FIG. 4
# [8] = glatiramer acetate 2 mg per mouse s.c. daily from day 0, FIG. 2
Compound,"Average cholesterol level [1, 5]","Average cholesterol level (% of control) [1, 5]","Average cholesterol level [1, 6]","Average cholesterol level (% of control) [1, 6]",effect on cholesterol levels (in words) [1],body weight loss [2],"disease activity index (DAI), chronic phase [2]","DSS-induced shortening of the colon length [2, 7]","disease activity index (DAI), acute phase [2]",reduction of aortic lesion areas relative to the control group [3],also measured
"CCCCCCCCCCCCCCCCOCC(COP(=O)([O-])OCC[N+](C)(C)C)OCCCCC(=O)O (stereo not shown) [VB-201, 1-hexadecyl-2-(4′-carboxybutyl)-glycerol-3-phosphocholine]",1303 mg/dL,126 % of control,2195 mg/dL,131 % of control,did not reduce cholesterol levels,reduced body weight loss over the period of days 17-24,reduced the DAI,partially reversed,without reducing the DM,39%,"C-reactive protein (CRP) levels, a marker for inflammation (C-reactive protein (CRP)): effective at reducing; survival at day 39 ([2]; VB-201 at all tested doses (0.04, 0.4 or 4 mg/kg daily oral gavage), FIG. 2): at least 80%; effect on colon length, compared between doses ([2]; day 39, 0.04 mg/kg VB-201 versus 0.4 and 4 mg/kg, FIG. 4): more effective than the higher doses; DSS-induced increase in the colon weight/length ratios ([2]; day 39, VB-201 at all tested doses (0.04, 0.4, 4 mg/kg), glatiramer acetate 2 mg per mouse, FIG. 5): partially reversed"
Glatiramer acetate,,,,,,reduced body weight loss over the period of days 8-22,did not reduce the DAI,not effective,reduced the DAI,,"survival by day 39 compared with control mice [2, 8]: below that of control mice; survival until day 23 [2, 8]: 100%"
CC(C)c1c(C(=O)Nc2ccccc2)c(-c2ccccc2)c(-c2ccc(F)cc2)n1CC[C@@H](O)C[C@@H](O)CC(=O)O [Atorvastatin],580 mg/dL,56 % of control,1082 mg/dL,64 % of control,reduced cholesterol levels considerably,,,,,33%,Average Alkaline Phosphatase level [4]: 104.63 IU/L; Average Alkaline Phosphatase level (% of control) [4]: 174 % of control; Average SGPT level [4]: 110.63 IU/L; Average SGPT level (% of control) [4]: 235 % of control; effect on SGPT and alkaline phosphatase levels (in words) ([4]; rabbits): increased
